Experimental data from patent publication US11300570B2, “Therapeutic and diagnostic methods for cancer” (Genentech, Inc., priority 2016, dated 2022).

Test system: locally advanced or metastatic NSCLC (PD-L1-unselected patients)
Experiment: POPLAR Phase II randomized trial, atezolizumab vs docetaxel, in 2L+ PD-L1-unselected NSCLC, efficacy by tTMB
Format: in vivo, human
Conditions: POPLAR; for OS HR (95% CI) / PFS HR (95% CI): atezolizumab vs docetaxel
From the text: Patients were eligible for enrollment in the POPLAR study if they had locally advanced or metastatic (e.g., stage IIIB, stage IV, or recurrent) NSCLC; disease progression during or following treatment with a prior platinum-containing regimen for locally advanced, unresectable/inoperable, or metastatic NSCLC, or disease recurrence within 6 months of treatment with a platinum-based adjuvant/neoadjuvant regimen; measurable disease, as defined by RECIST v1.1; and an ECOG performance status of 0 or 1. Participants were randomized to receive either atezolizumab at a dose of 1200 mg intravenously every three weeks or docetaxel 75 mg per meter square (mg/m^2) intravenously every three weeks. Treatment with atezolizumab could be continued as long as participants were experiencing clinical benefit, i.e., in the absence of unacceptable toxicity or symptomatic deterioration attributed to disease progression. Pre-treatment tumor samples from patients in the Phase III OAK trial (Clinical Trial ID No.: NCT02008227) were also evaluated for tTMB. Patients were eligible for enrollment in the OAK study if they had locally advanced or metastatic (e.g., stage IIIB, stage IV, or recurrent) NSCLC; disease progression during or following treatment with a prior platinum-containing regimen for locally advanced, unresectable/inoperable, or metastatic NSCLC, or disease recurrence within 6 months of treatment with a platinum-based adjuvant/neoadjuvant regimen; measurable disease, as defined by RECIST v1.1; and an ECOG performance status of 0 or 1. Participants were randomized to receive either atezolizumab at a dose of 1200 mg intravenously every three weeks or docetaxel 75 mg per square meter (mg/m^2) intravenously every three weeks. Treatment with atezolizumab could be continued as long as participants were experiencing clinical benefit, i.e., in the absence of unacceptable toxicity or symptomatic deterioration attributed to disease progression.
Data from the single-arm, PD-L1-selected trials BIRCH and FIR were combined and analyzed to examine the association between tTMB and clinical outcomes among PD-L1-selected patients. Data from the randomized, PD-L1-unselected trial, POPLAR, were analyzed separately and treatment effects between the atezolizumab- and docetaxel-treatment arms were compared.
To identify somatic mutations, tumor samples (e.g., archival tumor samples) were processed as described in Frampton et al. Nat. Biotechnol. 31:1023-31, 2013. Sequencing libraries were constructed to sequence and analyze samples. In addition to standard mutation processing, a mutation load estimation algorithm was applied that, based on the number of somatic mutations and/or rearrangements detected in Table 1 or Table 2, respectively, extrapolates to the exome or the genome as a whole. For purposes of mutation load estimation, all coding short variant alterations, base substitutions, and indels detected in the genes listed in Table 1 and Table 2 were counted. Further, all coding alterations (base substitutions and indels), including synonymous alterations, with the exception of known oncogenic driver mutations, in the genes listed in Table 1 and Table 2 were counted. However, numerous classes of detected alterations were not counted: non-coding alterations; alterations with known (occurring as known somatic alterations in the COSMIC database (Forbes et al. (2014) Nucl. Acids Res. 43:D805-11) and likely (truncations in tumor suppressor genes) functional status; known germline alterations in the dbSNP database (Sherry et al. (2001) Nucleic Acids Res. 29(1):308-11); germline alterations occurring with two or more counts in the ExAC database (Exome Aggregation Consortium (ExAC), Cambridge, Mass.); alterations that are predicted to be germline in the specimen being assessed; and alterations that are predicted to be germline in a cohort of >60,000 clinical specimens. […]

[1] = tTMB quantile ≥25%, unadjusted, unstratified
[2] = tTMB quantile ≥50% (median), unadjusted, unstratified
[3] = tTMB quantile ≥75%, unadjusted, unstratified

## atezolizumab
PD-L1-unselected 2L+ patients with NSCLC
  association of tTMB with efficacy of atezolizumab compared to docetaxel: trend towards an association of tTMB with improved efficacy
long-term follow-up (FIG. 1)
  clinical benefit in patients with low or no PD-L1 expression on TC and IC: can also derive clinical benefit
Per treatment arm
  ORR (confirmed per RECIST v1.1) with increasing tTMB: higher ORR (confirmed per RECIST v1.1) was associated with increased tTMB
BEP (n = 54 atezolizumab vs 38 docetaxel)
  ORR: 13%
ITT (n = 144 atezolizumab vs 143 docetaxel)
  ORR: 15% vs 15%
BEP (n = 54 vs 38)
  OS HR (95% CI): 0.65 (0.38, 1.12)
BEP (n = 54 vs 38), unadjusted, unstratified
  PFS HR (95% CI): 0.98 (0.63, 1.53)
ITT (n = 144 vs 143)
  OS HR (95% CI): 0.69 (0.49, 0.98)
ITT (n = 144 vs 143), unadjusted, unstratified
  PFS HR (95% CI): 0.92 (0.71, 1.20)
[1]
  OS HR (95% CI): 0.55 (0.29, 1.03)
  PFS HR (95% CI): 0.88 (0.52, 1.48)
[2]
  OS HR (95% CI): 0.48 (0.23, 1.04)
  PFS HR (95% CI): 0.49 (0.25, 0.93)
[3]
  OS HR (95% CI): 0.50 (0.15, 1.67)
  PFS HR (95% CI): 0.49 (0.19, 1.30)
tTMB quantile ≥25%
  ORR: 14%
tTMB quantile ≥50% (median)
  ORR: 20%
tTMB quantile ≥75%
  ORR: 20%
